This note sets out measurements from PubChem BioAssay AID328 (DTP/NCI, 2004).

“And” between values parts separate entries of the source, which are not always exact repeats. Equal entries are not always repeated. Toxic doses and inconclusive results are not listed.

The subject of the assay is BDF1 mice, P388 leukemia ip, median survival T/C. Nature of the assay: NCI In Vivo Anticancer Drug Screen. Data for tumor model P388 Leukemia (intraperitoneal) in B6D2F1 (BDF1) mice. The settings on record: endpoint: median survival time, higher = longer survival. A digest of the protocol: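 Antitumour effect was judged in vivo: survival in drug-treated mice, normalised to that of vehicle-dosed controls, gives the reported T/C.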

[1] abbreviates: dose: 25.0 mg/kg/injection, schedule: Q01DX009 (ip), vehicle: Klucel (hydroxypropylcellulose) (HPC).
The mark [2] stands for this setting: dose: 50.0 mg/kg/injection, schedule: Q01DX009 (ip), vehicle: Klucel (hydroxypropylcellulose) (HPC).
Where [3] appears, read: dose: 50.0 mg/kg/injection, schedule: Q04DX003 (ip), vehicle: Klucel (hydroxypropylcellulose) (HPC).
Setting [4] is: dose: 6.25 mg/kg/injection, schedule: Q01DX009 (ip), vehicle: saline with Tween-80.
Where [5] appears, read: dose: 12.5 mg/kg/injection, schedule: Q01DX009 (ip), vehicle: saline with Tween-80.
The mark [6] stands for this setting: dose: 50.0 mg/kg/injection, schedule: Q04DX003 (ip), vehicle: saline.
The mark [7] stands for this setting: dose: 100.0 mg/kg/injection, schedule: Q04DX003 (ip), vehicle: saline.
Where [8] appears, read: dose: 200.0 mg/kg/injection, schedule: Q04DX003 (ip), vehicle: saline.
The mark [9] stands for this setting: dose: 100.0 mg/kg/injection, schedule: Q01DX009 (ip), vehicle: Klucel (hydroxypropylcellulose) (HPC).
The mark [10] stands for this setting: dose: 200.0 mg/kg/injection, schedule: Q04DX003 (ip), vehicle: Klucel (hydroxypropylcellulose) (HPC).

With `CC(O)C#CC(C)O` (stereo unspecified), the T/C runs as follows: (dose: 12.5 mg/kg/injection, schedule: Q01DX009 (ip), vehicle: Klucel (hydroxypropylcellulose) (HPC)) 91 % of control; (dose: 12.5 mg/kg/injection, schedule: Q04DX003 (ip), vehicle: Klucel (hydroxypropylcellulose) (HPC)) 118 % of control; under setting [1], 91 % of control; (dose: 25.0 mg/kg/injection, schedule: Q04DX003 (ip), vehicle: Klucel (hydroxypropylcellulose) (HPC)) 104 % of control; under setting [2], 95 % of control; under setting [3], 109 % of control.
Regarding `CCCCCCCCCCCC1=NCCN1`, the T/C was 96 % of control (dose: 3.13 mg/kg/injection, schedule: Q01DX009 (ip), vehicle: saline with Tween-80); 100 % of control under setting [4]; 104 % of control under setting [5]; 96 % of control (dose: 12.5 mg/kg/injection, schedule: Q04DX003 (ip), vehicle: saline with Tween-80).
`COc1ccc(OC(=O)N2C=Cc3ccccc3C2C#N)cc1` (stereo unspecified): the T/C under setting [6] was 95 % of control, the T/C under setting [7] was 100 % of control and the T/C under setting [8] was 112 % of control.
For `COc1cc2c(cc1OC)C1c3cc(OC)c(OC)cc3CC(=O)N1CC2` (stereo unspecified), the T/C was 110 % of control (dose: 0.09 mg/kg/injection, schedule: Q01DX009 (ip), vehicle: saline); 88 % of control (dose: 0.39 mg/kg/injection, schedule: Q01DX009 (ip), vehicle: saline); 98 % of control (dose: 0.78 mg/kg/injection, schedule: Q01DX009 (ip), vehicle: saline); 99 % of control (dose: 1.56 mg/kg/injection, schedule: Q01DX009 (ip), vehicle: saline); 100 % of control (dose: 3.12 mg/kg/injection, schedule: Q01DX009 (ip), vehicle: saline); 108 % of control (dose: 12.5 mg/kg/injection, schedule: Q01DX009 (ip), vehicle: saline). In addition, the T/C is 102 % of control under setting [6]; 92 % of control (dose: 100.0 mg/kg/injection, schedule: Q01DX009 (ip), vehicle: saline); 99 % of control under setting [7]; 102 % of control under setting [8]; 93 % of control (dose: 400.0 mg/kg/injection, schedule: Q04DX003 (ip), vehicle: saline).
Regarding `CCOC(=O)C(NC(=O)C(Cc1ccc(N(CCCl)CCCl)cc1)NC(C)=O)C(C)C` (stereo unspecified), the T/C is, setting by setting: (dose: 5.0 mg/kg/injection, schedule: Q04DX003 (ip), vehicle: other) 118 % of control; (dose: 10.0 mg/kg/injection, schedule: Q04DX003 (ip), vehicle: other) 118 % of control; (dose: 40.0 mg/kg/injection, schedule: Q04DX003 (ip), vehicle: other) 151 % of control; (dose: 66.0 mg/kg/injection, schedule: Q04DX003 (ip), vehicle: saline with Tween-80) 168 % of control; (dose: 100.0 mg/kg/injection, schedule: Q04DX003 (ip), vehicle: saline with Tween-80) 186 % of control; (dose: 150.0 mg/kg/injection, schedule: Q04DX003 (ip), vehicle: saline with Tween-80) 245 % of control.
Turning to `Cc1c(C)c2c(N)c3ccccc3nc2c2ccccc12`, the T/C (dose: 12.5 mg/kg/injection, schedule: Q01DX001 (ip), vehicle: saline with Tween-80) is 97 % of control; the T/C (dose: 25.0 mg/kg/injection, schedule: Q01DX001 (ip), vehicle: saline with Tween-80) is 100 % of control and 117 % of control; the T/C (dose: 50.0 mg/kg/injection, schedule: Q01DX001 (ip), vehicle: saline with Tween-80) was 105 % of control.
Regarding `C1CN2CCC1CC2`, the T/C is, setting by setting: under setting [5], 107 % of control; (dose: 22.0 mg/kg/injection, schedule: Q01DX009 (ip), vehicle: saline with Tween-80) 101 % of control; (dose: 25.0 mg/kg/injection, schedule: Q01DX009 (ip), vehicle: saline with Tween-80) 119 % of control; (dose: 33.0 mg/kg/injection, schedule: Q01DX009 (ip), vehicle: saline with Tween-80) 122 % of control.
With `O=C1C2CC=CCC2C(=O)N1SC(Cl)(Cl)Cl` (stereo unspecified), the T/C under setting [4] is 120 % of control and the T/C under setting [5] was 120 % of control.
For `COC(=O)c1cc(=O)nc(NN=C2CCCCC2)s1`, the T/C is, setting by setting: (dose: 50.0 mg/kg/injection, schedule: Q01DX005 (ip), vehicle: saline with Tween-80) 99 % of control; (dose: 100.0 mg/kg/injection, schedule: Q01DX005 (ip), vehicle: saline with Tween-80) 103 % of control.
With `CCCC(=O)c1ccco1`, where the note is “dose: 50.0 mg/kg/injection, schedule: Q01DX009 (ip), vehicle: saline with Tween-80”, the T/C was 101 % of control.
On to `ClCc1ccncc1`, for which the T/C by setting is: under setting [7], 100 % of control; under setting [8], 100 % of control.
Regarding `CCCCCCCCC1SC1CCCCCCCC(=O)OCCN(C)C(=O)CCCCCCCC1SC1CCCCCCCC` (stereo unspecified), the T/C is, setting by setting: (dose: 100.0 mg/kg/injection, schedule: Q04DX003 (ip), vehicle: other) 100 % of control; (dose: 200.0 mg/kg/injection, schedule: Q04DX003 (ip), vehicle: other) 100 % of control; (dose: 400.0 mg/kg/injection, schedule: Q04DX003 (ip), vehicle: other) 100 % of control.
Regarding `O=C(O)CSc1cc(-c2ccc(Cl)cc2)s[s+]1`, the T/C is 104 % of control (dose: 1.56 mg/kg/injection, schedule: Q01DX009 (ip), vehicle: water); 100 % of control (dose: 2.0 mg/kg/injection, schedule: Q04DX003 (ip), vehicle: water); 115 % of control (dose: 3.12 mg/kg/injection, schedule: Q01DX009 (ip), vehicle: water); 112 % of control (dose: 4.0 mg/kg/injection, schedule: Q04DX003 (ip), vehicle: water); 112 % of control (dose: 6.25 mg/kg/injection, schedule: Q01DX009 (ip), vehicle: water); 117 % of control (dose: 6.25 mg/kg/injection, schedule: Q04DX003 (ip), vehicle: water). Moreover, the T/C reads like this: (dose: 8.0 mg/kg/injection, schedule: Q04DX003 (ip), vehicle: water) 100 % of control; (dose: 12.5 mg/kg/injection, schedule: Q01DX009 (ip), vehicle: water) 107 % of control; (dose: 12.5 mg/kg/injection, schedule: Q04DX003 (ip), vehicle: water) 100 % of control; (dose: 16.0 mg/kg/injection, schedule: Q04DX003 (ip), vehicle: water) 90 % of control; (dose: 25.0 mg/kg/injection, schedule: Q04DX003 (ip), vehicle: water) 97 % of control; (dose: 50.0 mg/kg/injection, schedule: Q04DX003 (ip), vehicle: water) 97 % of control.
As for `CCCOP(=S)(N1CC1)N1CC1`, the T/C was 100 % of control (dose: 25.0 mg/kg/injection, schedule: Q01DX009 (ip), vehicle: other); 116 % of control under setting [3]; 100 % of control under setting [9]; 150 % of control (dose: 100.0 mg/kg/injection, schedule: Q01DX009 (ip), vehicle: other); 183 % of control under setting [10].
Consider `ClC(CN1CCCCC1)C(Cl)c1ccccc1` (stereo unspecified), for which the T/C (dose: 50.0 mg/kg/injection, schedule: Q04DX003 (ip), vehicle: saline sonified) is 108 % of control; the T/C (dose: 100.0 mg/kg/injection, schedule: Q04DX003 (ip), vehicle: saline sonified) was 112 % of control; the T/C (dose: 200.0 mg/kg/injection, schedule: Q04DX003 (ip), vehicle: saline sonified) is 104 % of control.
Turning to `OCC1(c2ccccc2)CCN(Cc2ccccc2)CC1`, the T/C runs as follows: under setting [1], 107 % of control; under setting [2], 107 % of control; under setting [9], 87 % of control; (dose: 100.0 mg/kg/injection, schedule: Q04DX003 (ip), vehicle: Klucel (hydroxypropylcellulose) (HPC)) 91 % of control; under setting [10], 87 % of control.
For `C(/C=C/C=C/N1CCCCC1)=[N+]1CCCCC1`, the T/C reads like this: (dose: 0.13 mg/kg/injection, schedule: Q01DX009 (ip), vehicle: saline) 97 % of control; (dose: 0.25 mg/kg/injection, schedule: Q01DX009 (ip), vehicle: saline) 104 % of control; (dose: 0.5 mg/kg/injection, schedule: Q01DX009 (ip), vehicle: saline) 89 % of control; (dose: 1.0 mg/kg/injection, schedule: Q01DX009 (ip), vehicle: saline) 110 % of control.
